Data published in US11071735B2, “Treatment of inflammatory conditions and autoimmune diseases with glucose uptake inhibitors” (Kadmon Corporation, LLC, priority 2017, dated 2021).

Experiments:
GLUT1 = biological target: T1, GLUT1 (Homo sapiens, UniProt P11166); assay: glycolysis assay in DLD1 WT cells (rely on GLUT1); type: cell-based; conditions: DLD1 WT versus DLD1 GLUT1−/− cells
T1 construct: endogenous in cells; host or cells: DLD1 WT cancer cells
T1 sequence (P11166 1-492): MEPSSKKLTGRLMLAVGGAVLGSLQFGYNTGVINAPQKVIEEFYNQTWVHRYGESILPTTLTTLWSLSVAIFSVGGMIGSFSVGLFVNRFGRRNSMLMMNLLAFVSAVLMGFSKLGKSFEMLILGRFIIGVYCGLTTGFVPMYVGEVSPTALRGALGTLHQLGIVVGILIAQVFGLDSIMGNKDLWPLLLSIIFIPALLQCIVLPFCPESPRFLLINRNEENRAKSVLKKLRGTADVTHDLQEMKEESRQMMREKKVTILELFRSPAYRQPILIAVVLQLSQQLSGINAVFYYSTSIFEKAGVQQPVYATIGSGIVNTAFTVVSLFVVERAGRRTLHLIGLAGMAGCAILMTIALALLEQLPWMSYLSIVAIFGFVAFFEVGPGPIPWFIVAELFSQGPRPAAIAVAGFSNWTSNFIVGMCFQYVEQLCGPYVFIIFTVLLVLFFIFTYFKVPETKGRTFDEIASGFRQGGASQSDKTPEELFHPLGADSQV
Summary of the method: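 Cells […] exposed for 1 h to inhibitor plus 10 μM oligomycin to block mitochondrial ATP; remaining glycolytic ATP read by CellTiter-Glo luminescence. IC50 derived from dose-response curves.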

[1] = tested on: activated human CD4+ T cells; assay: one-hour glycolysis assay in activated human CD4 T cells; type: cell-based; conditions: human CD4 T cells activated 24 hours, one hour treatment plus oligomycin
Procedure: In FIG. 2A, human CD4 positive T cells were activated for 24 hours prior to a one hour treatment with the indicated glucose uptake inhibitors combined with 10 μM oligomycin. In FIG. 2B, human CD4 T cells were activated for 48 hours in the presence of the glucose uptake inhibitors. IL-17 and IL-2 secreted into the supernatant was measured by ELISA (R&D systems). Proliferation was measured by Cell Titer Glo (Promega). FIG. 2C lists the IC50 values (μM) for the glucose uptake inhibitors against activated T cell glycolysis, IL-17 secretion and proliferation. […] In FIG. 3A, human CD4 positive T cells were activated for 24 hours prior to a one hour treatment with Bay876 combined with 1 μM oligomycin. In FIG. 3B, human CD4 T cells were activated for 48 hours in the presence of Bay876. L-17 secreted into the supernatant was measured by ELISA (R&D systems). Proliferation was measured by Cell Titer Glo (Promega). […] At this time, secreted IL-17, IL-2 and relative cell number were measured (FIG. 2B, right panel). […] Cells were exposed to the combination of 10 μM Oligomycin (to block mitochondrial-derived ATP) and the glucose uptake inhibitors disclosed herein for one-hour, after which glycolytically-derived ATP was measured with the Cell Titer-Glo assay kit (Promega). […] IL-17 levels were measured by ELISA (R&D systems, Human IL-17 Quantikine ELISA kit). Proliferation was measured by Cell Titer Glo (Promega). […]

Structure (SMILES): Cc1c(NC(=O)c2cc(C(N)=O)nc3cc(F)ccc23)c(C(F)(F)F)nn1Cc1ccc(C#N)cc1 [Bay876]
- GLUT selectivity (inhibition of glycolysis) (GLUT1): selective for GLUT1
- glycolysis in activated T cells [1]: neither inhibited glycolysis
